Assay [1] concerns CD4^+KIR^+NK1.1^− cells. In words: Flow cytometry (6G10) of KIR on murine T cells treated with 5-azaC. Format: cell-based.
For assay [2], the system named is KIRL1 mRNA. In words: KIRL1 mRNA relative to GAPDH by RT-PCR in CD4+ T cells from 5-azaC treated splenocytes. Particulars: ConA-stimulated splenocytes, n=4, p=0.038. Format: cell-based, murine. The procedure:
FIGS. 2A-B. (A) Murine splenocytes were stimulated with […], treated or not with 5-azaC, then KirL1 mRNA was measured in CD4^+ T cells relative to GAPDH by RT-PCR. (B) Double transgenic mice were given Dox or not in their drinking water, then KirL1 mRNA measured in CD4+ splenocytes as in panel A.
(§1) To test if the mouse T cell KIR genes are also activated by DNA methylation inhibition, murine splenocytes were stimulated with ConA, treated with 5-azaC, and KIRL1 mRNA measured relative to GAPDH by RT-PCR in CD4+ T cells bead purified by negative selection to remove NK and other non-CD4+ T cells.

In assay [3] the test system is CD3^+CD4^+CD28^+ T cells. In words: KIR and CD11a expression on PHA-stimulated, 5-azaC treated PBMC (flow cytometry). Format: cell-based, human. As for the experimental part:
FIGS. 11A-D. 5-Azacytidine treatment of PHA-stimulated PBMC induces the expression of KIR proteins on a subset of CD4^+CD28^+CD11a^hi T cells. PBMC were stimulated for 18-24 hrs with PHA followed by treatment with 2.5 μM 5-azacytidine or saline for 72 hrs. The cells were then stained with fluorochrome-conjugated antibodies to methylation-sensitive gene products, fixed and analyzed by flow cytometry as described in Methods. Gating was established to select CD3^+CD4^+CD28^+ T cells. The CD3^+CD4^+CD28^+ T cells were then analyzed for CD11a and KIR using a cocktail of 5 PE-conjugated anti-KIR antibodies and imaged on a FACS Synergy flow cytometer. (A), Untreated T cells. (B), 5-azaC treated T cells. (C), 5-azaC treated PBMC stained only with the cocktail of anti-KIR antibodies. (D), 5-azaC treated T cells stained with antibodies to CD3, CD4, CD28, CD11a, CD70 and CD40L but not KIR. The figure shown is representative of 9 separate cultures.
The expression of methylation-sensitive genes was analyzed in 5-azaC treated cells from healthy women. PBMCs from a healthy […] were stimulated with PHA then cultured with or without 5-azaC. Seventy-two hours later the cells were washed, stained with fluorochromeconjugated antibodies to CD3, CD4, CD28, CD11a, CD70 and CD40L with and without a “cocktail” of PE conjugated antibodies to 5 distinct KIR proteins then analyzed by flow cytometry as outlined in FIG. 10. […]
In the absence of treatment with the demethylating agent 5-azaC very few KIR+ cells were observed (FIG. 11A). […] Further, CD11a expression on the majority (>70%) of the KIR^+CD3^+CD4^+CD28^+ cells treated with 5-azaC (FIG. 11B, rectangle) was nearly twice that of the corresponding KIR− T cells (FIG. 11B, circle) from the same cultures (median fluorescence intensity 2298+/−748 SD, versus 1394+/−572, respectively, n=9 analyzed in 7 different experiments, p<0.001). […]

For assay [4] the following is noted: lupus patients; cited from earlier work.
Assay [5] deals with CD4^+KIR^+NK1.1^− cells. In words: Flow cytometry (6G10) of KIR on CD4+ splenocytes of tet-on dnMEK transgenic mice receiving dox. Format: in vivo. The procedure:
FIGS. 3A-B.) Double transgenic mice were given Dox (B) or not (A) in their drinking water, then KirL1 expression was measured on CD4+ splenocytes by flow cytometry.
as §1

For assay [6], the system named is CD4^+KIRL1^+CD11a^hiCD40L^+ subset. In words: Multicolor flow cytometry of splenocytes of SJL mice given dox for 6 weeks. Particulars: dox 6 weeks; controls 0.007%. It counts as in vivo. From the text:
SJL mice were given dox for 6 weeks, sacrificed, then splenocytes stained with Pacific Blue-CD3; FITC-CD8; PE-CD40L; PE-Cy5-CD4; Avidin-APC-Cy7/biotin-KIRL1; PERCP-Cy5.5-CD11a. Mice receiving dox developed a CD4^+KIRL1^+CD11a^hiCD40L^+ subset that resembles the human lupus subset shown in FIG. 1, and represented 1.09% of the total CD11a+ cells, while controls had only 0.007% CD4^+KIRL1^+CD11a^hiCD40L^+ cells.

Data on 3 compounds can be found in US20160272709A1, “ANTI-KIR ANTIBODIES” (The Regents of the University of Michigan, priority 2015, published 2016).

For the compound `Nc1ncn([C@@H]2O[C@H](CO)[C@@H](O)[C@H]2O)c(=O)n1` [5-azaC, 5-azacytidine], in assay [1], the “increase in CD4^+KIR^+NK1.1^− cells” value worked out at 3.1 fold. Also, in assay [2], the “KIRL1 mRNA relative to GAPDH” value is given as “overexpressed KIRL1 mRNA”. Moreover, the “numbers of KIR+ cells” value in assay [3] (2.5 μM 5-azaC 72 hrs after PHA) is “increases the numbers of KIR+ cells”. In addition, in assay [3] (5-azaC treated cultures, SD, n=9, p<0.001 vs KIR− cells), the “CD11a median fluorescence intensity on KIR^+CD3^+CD4^+CD28^+ cells” value was 2298+/−748. Further, in assay [3] (same 5-azaC treated cultures, SD, n=9), the “CD11a median fluorescence intensity on corresponding KIR− T cells” value is given as 1394+/−572.

As to `CC(=O)N[C@@H](CS)C(=O)O` [N-acetylcysteine], the flare severity result in assay [4] is listed as “decreases flare severity”.

Turning to `C[C@H]1c2cccc(O)c2C(=O)C2=C(O)[C@]3(O)C(=O)C(C(N)=O)=C(O)[C@@H](N(C)C)[C@@H]3[C@@H](O)[C@@H]21` [dox, doxycycline], in assay [5] (tet-on mouse with higher KIR expression, FIGS. 3A-B), the “KIR expression, % of total CD4+ T cells” value is recorded as 3.9%. Besides, the “increase in CD4^+KIR^+NK1.1^− cells” value in assay [5] (transgenic mice receiving dox) was 5.7 fold. Besides, in assay [6], the “CD4^+KIRL1^+CD11a^hiCD40L^+ subset, % of total CD11a+ cells” value is on record as 1.09%.
